Earlier results, collected in US8653051B2, “Use of 3-alpha-androstanediol in combination with a PDE5 inhibitor, in the treatment of sexual dysfunction” (Emotional Brain B.V., priority 2006, dated 2014).

Conditions: typical value after administration

Structure (SMILES): CCCc1nc(C)c2c(=O)nc(-c3cc(S(=O)(=O)N4CCN(CC)CC4)ccc3OCC)[nH]n12.Cl [vardenafil, piperazine, 1-[[3-(1,4-dihydro-5-methyl-4-oxo-7-propylimidazo[5,1-f][1,2,4]triazin-2-yl)-4-ethoxyphenyl]sulfonyl]-4-ethyl-, monohydrochloride]
- time to reach peak plasma concentration after administration: about 1 hour
